Ten compounds from ChEMBL document CHEMBL1201862, “PubChem BioAssay data set” (2004) can be followed below.

Common to all, as to experiment: NCI anticancer screen, dose series, 48 h
For assay [1], the system named is SNB-75.
Assay [2] deals with OVCAR-4.
For assay [3], the system named is SK-MEL-2.
The test system of assay [4] is HL-60.
In assay [5] the test system is NCI/ADR-RES.
Assay [6] relates to COLO 205.
The subject of assay [7] is SK-MEL-5.
In assay [8] the test system is Hs-578T.
Assay [9] deals with A498.
Assay [10] concerns U-251.
Assay [11] deals with UACC-257.
Assay [12] concerns CCRF-CEM.
Assay [13] concerns HCT-116.
Assay [14] relates to HCC 2998.
For assay [15], the system named is EKVX.
In assay [16] the test system is OVCAR-3.
The subject of assay [17] is SF-295.
In assay [18] the test system is IGROV-1.
Assay [19] concerns NCI-H226.

Molecules are shown by their SMILES.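 Method: 48-hour compound exposure of cells in 96-well plates, five concentrations, linear interpolation of endpoints. Here, GI50 denotes the concentration required for 50% inhibition of growth.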 The source made the active and inactive calls. Rule as the data show it: active = GI50 up to about 1.1 µM and inactive = higher.

In the case of `CC(C)(C)OC(=O)N(CCCCN(CCCNC(=O)C(F)(F)F)C(=O)OC(C)(C)C)CCCNC(=O)C(F)(F)F`, the GI50 in assay [1] is > 100 µM (inactive); in assay [2], > 100 µM (inactive); in [3], > 100 µM (inactive); in assay [4], 60.3 µM (inactive); in assay [5], 91.2 µM (inactive); in assay [6], > 100 µM (inactive). The GI50 in assay [7] was 79.3 µM (inactive); in assay [8], > 100 µM (inactive); in assay [9] it was > 100 µM (inactive); in assay [10], > 100 µM (inactive); in assay [11], > 100 µM (inactive); in assay [12], > 100 µM (inactive). Further, the GI50 in [13] is > 100 µM (inactive); in assay [14] it was > 100 µM (inactive); in [15] it was > 100 µM (inactive); in assay [16] it was 45.3 µM (inactive); in [17] it was > 100 µM (inactive); in assay [18], > 100 µM (inactive). Besides, the GI50 in assay [19] is > 100 µM (inactive).

As to `CCCCCC(C/C=N/N(C)C)C(O)(C(F)(F)F)C(F)(F)F` (stereo not given), the GI50 in [1] is 29 µM (inactive); in assay [2], 53.2 µM (inactive); in [3] it was 25.9 µM (inactive); in assay [4], 14.2 µM (inactive); in assay [5], > 100 µM (inactive); in [6], 16.3 µM (inactive). For the same compound, the GI50 is 16.6 µM (inactive) in assay [7]; 35.6 µM (inactive) in assay [8]; 23.7 µM (inactive) in assay [9]; 25.4 µM (inactive) in assay [10]; 17.1 µM (inactive) in assay [12]; 32 µM (inactive) in [13]. Moreover, the GI50 in assay [14] was 35.1 µM (inactive); in [15], 41.6 µM (inactive); in assay [16] it was 9.31 µM (inactive); in [17], 42.5 µM (inactive); in assay [18], 19 µM (inactive); in assay [19], 41.5 µM (inactive).

With `Sc1nnc(NNc2ccccc2)n1Nc1ccccc1`, the GI50 in [1] was > 44.7 µM (inactive); in assay [2], 0.236 µM (active); in assay [4], 0.04 µM (active); in assay [5] it was 34.3 µM (inactive); in [6], 0.109 µM (active); in assay [7] it was 0.488 µM (active). The GI50 in assay [8] was > 64.3 µM (inactive); in [9] it was 39.4 µM (inactive); in assay [10] it was 21.1 µM (inactive); in [11] it was 0.283 µM (active); in [12], 8.97 µM (inactive); in assay [13], 2.31 µM (inactive). Further, the GI50 in assay [14] is 1.78 µM (inactive); in [15] it was > 87.3 µM (inactive); in [16], > 41.7 µM (inactive); in assay [17], < 0.01 µM (active); in [18], 19.8 µM (inactive); in assay [19], 22.6 µM (inactive).

For `CC(=O)OCC1OC(Nn2c(=O)[nH]c3ccccc3c2=O)C(OC(C)=O)C(OC(C)=O)C1OC(C)=O` (stereo not given), the GI50 in assay [1], in assay [3], in assay [4], in [5], in assay [6] and in assay [7] was > 100 µM (inactive) throughout. Besides, the GI50 in assay [8] was > 100 µM (inactive); in assay [9], > 100 µM (inactive); in assay [10], > 100 µM (inactive); in [11], 35.3 µM (inactive); in [12] it was 40.2 µM (inactive); in assay [13], > 100 µM (inactive). The GI50 in assay [14] was 15 µM (inactive); in assay [15] it was > 100 µM (inactive); in assay [16], > 100 µM (inactive); in assay [17], > 100 µM (inactive); in [18], > 100 µM (inactive); in assay [19] it was > 100 µM (inactive).

With `CC(=O)OCC1OC(n2c(-c3cccs3)c3c(c(C#N)c2=S)-c2ccccc2CC3)C(OC(C)=O)C(OC(C)=O)C1OC(C)=O` (stereo not given), the GI50 in assay [1] is 1.36 µM (inactive); in [2], 5.32 µM (inactive); in assay [3] it was 5.48 µM (inactive); in assay [4], 2.64 µM (inactive); in [5] it was 17.7 µM (inactive); in assay [6] it was 9.35 µM (inactive). Moreover, the GI50 in assay [7] was 6.18 µM (inactive); in assay [8], 7.52 µM (inactive); in assay [9] it was 7.66 µM (inactive); in assay [10] it was 10.1 µM (inactive); in assay [11], 12.8 µM (inactive); in [12], 9.91 µM (inactive). For the same compound, the GI50 in [13] is 7.67 µM (inactive); in assay [14], 8.73 µM (inactive); in assay [15] it was 5.53 µM (inactive); in assay [16], 10.4 µM (inactive); in assay [17], 13.7 µM (inactive); in assay [18], 9.04 µM (inactive). The GI50 in assay [19] is 28.4 µM (inactive).

As to `Cc1ccc(/N=N/NCCCCN)cc1`, the GI50 in assay [1] is > 100 µM (inactive); in assay [2] it was > 100 µM (inactive); in assay [3], > 100 µM (inactive); in assay [4], 3.79 µM (inactive); in [5], > 100 µM (inactive); in assay [6] it was > 100 µM (inactive). For the same compound, the GI50 in assay [7] is 23.8 µM (inactive); in assay [8] it was > 100 µM (inactive); in [9] it was > 100 µM (inactive); in assay [11] it was > 100 µM (inactive); in assay [12], 9.64 µM (inactive); in assay [13], > 100 µM (inactive). Also, the GI50 in assay [14] was > 100 µM (inactive); in assay [15], > 100 µM (inactive); in assay [17], 19.3 µM (inactive); in assay [18], > 100 µM (inactive); in [19], > 100 µM (inactive).

Consider `N#CC(c1ccccc1)N(CCc1ccccc1)C(=O)c1ccc(C(=O)N(CCc2ccccc2)C(C#N)c2ccccc2)cc1` (stereo not given), for which the GI50 in assay [1] is 19.3 µM (inactive); in assay [2], 18.9 µM (inactive); in assay [3], 19.6 µM (inactive); in [4], 22.9 µM (inactive); in assay [5], 17.9 µM (inactive); in assay [6], 21.9 µM (inactive). Also, the GI50 was 13.5 µM (inactive) in assay [7]; 12.9 µM (inactive) in [8]; 30.5 µM (inactive) in [9]; 24.3 µM (inactive) in assay [10]; 18.1 µM (inactive) in assay [11]; 26.1 µM (inactive) in assay [12]. Besides, the GI50 was 14.3 µM (inactive) in assay [13]; 15.3 µM (inactive) in [14]; 34.4 µM (inactive) in [15]; 17.1 µM (inactive) in assay [16]; 18.5 µM (inactive) in assay [17]; 23.9 µM (inactive) in [18]. Further, the GI50 in [19] was 17 µM (inactive).

Regarding `CCOC(=O)c1cc(-c2ccc(OC)c(OC)c2)c[nH]1`, the GI50 was 5.08 µM (inactive) in [1]; > 10 µM (inactive) in [2]; > 10 µM (inactive) in assay [3]; > 10 µM (inactive) in assay [4]; > 10 µM (inactive) in [5]; > 10 µM (inactive) in assay [6]. Besides, the GI50 in assay [7], in assay [8], in [9], in assay [10], in assay [11] and in assay [12] was > 10 µM (inactive) each time. Also, the GI50 in assay [13], in [14], in assay [15], in [16], in assay [17] and in assay [18] was > 10 µM (inactive) in each case. Besides, the GI50 in [19] was > 10 µM (inactive).

As for `O=C1C=CC(=O)c2c1ccc1c3ccccc3n(CCCCCCCCCCCCn3c4ccccc4c4ccc5c(c43)C(=O)C=CC5=O)c21`, the GI50 in assay [1] was > 100 µM (inactive); in [2], > 100 µM (inactive); in assay [3], > 100 µM (inactive); in assay [4] it was 46.7 µM (inactive); in assay [5] it was > 100 µM (inactive); in assay [6], > 100 µM (inactive). Further, the GI50 was > 100 µM (inactive) in assay [7]; > 100 µM (inactive) in assay [8]; > 100 µM (inactive) in assay [9]; > 88.7 µM (inactive) in assay [10]; > 100 µM (inactive) in assay [11]; 26.3 µM (inactive) in assay [12]. Besides, the GI50 in assay [13] was > 100 µM (inactive); in [14], > 46.5 µM (inactive); in assay [15] it was > 100 µM (inactive); in assay [16], > 100 µM (inactive); in [17] it was > 100 µM (inactive); in assay [18] it was > 100 µM (inactive). For the same compound, in assay [19], the GI50 is > 100 µM (inactive).

As to `O=C(OC(/C=C/c1ccccc1)P1(=O)N(Cc2ccccc2)[C@@H]2CCCC[C@H]2N1Cc1ccccc1)c1ccccc1` (stereo not given in full), the GI50 in [1] was 3.18 µM (inactive); in assay [2], 4.22 µM (inactive); in [3] it was 2.25 µM (inactive); in assay [4], 2.79 µM (inactive); in assay [5], 2.74 µM (inactive); in [6], 2.04 µM (inactive). In addition, the GI50 was 3.14 µM (inactive) in assay [7]; 6.67 µM (inactive) in assay [8]; 5.73 µM (inactive) in assay [9]; 3.79 µM (inactive) in [10]; 3.07 µM (inactive) in [11]; 2.52 µM (inactive) in assay [12]. Moreover, the GI50 in assay [13] is 2.87 µM (inactive); in assay [14], 4.9 µM (inactive); in assay [15] it was 4.56 µM (inactive); in assay [16], 3.93 µM (inactive); in [17], 4.09 µM (inactive); in [18], 2.9 µM (inactive). In assay [19], the GI50 was 6.43 µM (inactive).
